# Test results from patent publication US10450295B2, “Method of using an indolinone molecule and derivatives for inhibiting liver fibrosis and hepatitis” (Acclaim BioMed USA LLC, priority 2013, dated 2019).
# Entries after “also recorded” stand apart in the source; their conditions may differ.
# Tests used:
# collagen type III = experiment: Immunofluorescent staining of HSC cultures, collagen type III; format: cell-based, human; settings: 0.625 μM, 24-48 hours
# Procedure: (§1) Human Hepatic Stellate cells (LX-2 cell line) (HSCs) were obtained from the Key Lab of Regenerative Medicine, Jinan University, Guangzhou, China, which were maintained in Dulbecco's Modified Eagle Medium (DMEM)+10% fetal calf serum and penicillin-streptomycin (100 unit/ml and 0.1 mg/ml, respectively), in 5% CO2 at 37° C. inside a humidified cell incubator. The culture medium was changed every three days. To test the effects of small molecule Hesperadin on the mouse and human HSCs, the cultures were treated with 0.625 μM of Hesperadin for 48 hrs. The cultures were then fixed in ice cold 70% ethanol and incubated in phosphate buffered saline with RNase (0.25 mg/ml), Propidium iodide dye (40 μg/ml) and 0.1% Triton X for an hour at room temperature. For cell cycle analysis, the Propidium iodide stained cells were examined using a flow cytometer (“BD LSRFortessa Cell Analyzer”). The proliferation of HSCs was also evaluated by the MTT staining assay with 3-(4,5-Dimethylthiazol-2-yl)-2,5-diphenyltetrazolium bromide). […] The absorbance (at 570 nm) was measured using a BIORAD 3550 Microplate Reader. […] After washing, the sections were viewed and recorded using a FluoView FV1000 Confocal microscope and/or a Nikon i80 microscope respectively to identify the presence of HSC expressing collagens. The positive staining of Collagen types I, III and IV was analyzed with the Metamorph software.
# collagen type IV = experiment: Immunofluorescent staining of HSC cultures, collagen type IV; format: cell-based, human; settings: 0.625 μM, 24-48 hours
# Procedure: as §1
# TIMP-1 gene expression = experiment: Real-time RT-PCR in HSC, TIMP-1; format: cell-based, human; settings: 0.625 μM, FIG. 11
# Procedure: (§2) Human Hepatic Stellate cells (LX-2 cell line) (HSCs) were obtained from the Key Lab of Regenerative Medicine, Jinan University, Guangzhou, China, which were maintained in Dulbecco's Modified Eagle Medium (DMEM)+10% fetal calf serum and penicillin-streptomycin (100 unit/ml and 0.1 mg/ml, respectively), in 5% CO2 at 37° C. inside a humidified cell incubator. The culture medium was changed every three days. To test the effects of small molecule Hesperadin on the mouse and human HSCs, the cultures were treated with 0.625 μM of Hesperadin for 48 hrs. […] The proliferation of HSCs was also evaluated by the MTT staining assay with 3-(4,5-Dimethylthiazol-2-yl)-2,5-diphenyltetrazolium bromide). […] The absorbance (at 570 nm) was measured using a BIORAD 3550 Microplate Reader. […]
# (§3) Collagen type-I, -III and -VI, MMP-2, MMP-9 and TIMP-1 gene expression was determined using quantitative real-time PCR. […] Quantitation of mRNA levels was performed using a SYBR® Premix Ex Taq™ Kit (Takara) in an Applied Biosystems 7900HT Fast Real-Time PCR System. To quantify the amount of specific mRNA in the samples, a standard curve was generated for each PCR run using four amounts of the cDNA synthesized from our HSC cultures and liver samples. […] Data was analyzed using a StatView software (Abacus Concepts Inc) with Student's t-test.
# MMP-9 gene expression = experiment: Real-time RT-PCR in HSC, MMP-9; format: cell-based, human; settings: 0.625 μM, FIG. 10
# Procedure: as §2, §3
# human Aurora B kinase = settings: read-out: IC50 for the prevention of the phosphorylation of substrate; cited from earlier work
# collagen type I = experiment: Immunofluorescent staining of HSC cultures, collagen type I; format: cell-based, human; settings: 0.625 μM, 24-48 hours
# Procedure: as §1
# [1] = system: cultured bloodstream forms (BF); settings: read-out: IC50, growth of cultured bloodstream forms (BF); cited from earlier work
# Mammalian cells = settings: cited from earlier work
# MMP-2 gene expression = experiment: Real-time RT-PCR in HSC, MMP-2; format: cell-based, human; settings: 0.625 μM, FIG. 9
# Procedure: as §2, §3
structure (smiles),measurement,setting,value
"CCS(=O)(=O)Nc1ccc2c(c1)/C(=C(/Nc1ccc(CN3CCCCC3)cc1)c1ccccc1)C(=O)N2 [Hesperadin, (Z)—N-(2-oxo-3-(Phenyl(4-(piperidin-1-ylmethyl)phenylamino)methylene)indolin-5-yl)ethanesulfonamide]",collagen type III expression (immunofluorescence),collagen type III,significantly inhibited; also recorded: inhibits the synthesis of collagen type III
same,collagen type IV expression (immunofluorescence),collagen type IV,significantly inhibited; also recorded: inhibits the synthesis of collagen type IV
same,TIMP-1 mRNA expression,TIMP-1 gene expression,inhibited
same,MMP-9 mRNA expression,MMP-9 gene expression,inhibited
same,IC50,human Aurora B kinase,0.04 µM
same,collagen type I expression (immunofluorescence),collagen type I,significantly inhibited; also recorded: inhibits the synthesis of collagen type I
same,IC50,[1],0.05 µM
same,time to enter anaphase,Mammalian cells; cells arrested by taxol or monastrol,< 1 h
same,time cells stayed arrested,Mammalian cells; cells in nocodazole,3 to 5 h
same,effect on nuclear division and cytokinesis,Mammalian cells,blocks nuclear division and cytokinesis
same,MMP-2 mRNA expression,MMP-2 gene expression,inhibited
